Results: patent publication US8519096B2, “Citrullinated peptides for diagnosing and prognosing rheumatoid arthritis” (Nestec S.A., priority 2009, dated 2013)
Non-standard residues stand in square brackets, D forms with d. *: point of attachment. Biotin = O=C1N[C@H]2[C@H](CS[C@H]2CCCCC(=O)*)N1; Cit = NC(=O)NCCC[C@H](N)C(=O)O

Test system: IgG ACPAs
Experiment: ACPA ELISA with anti-human IgG secondary antibody
Format: binding
Conditions: Example 7, FIGS. 20-27
Experimental: The synthetic citrullnated peptides set forth in Example 6, which were designed from synovial proteins, were synthesized and evaluated for their ability to diagnose and/or prognose RA. […] The peptides were then tested for IgG ACPA dose-response in samples of synovial fluid taken from both healthy patients and patients with RA.

| Substance | IgG ACPA positive response (strong/moderate) |
| --- | --- |
| T11α2-1: synthetic citrullinated peptide derived from collagen (Coll.T11α2), Table 8 (Biotin-GISPADVAY[Cit]VARPAQLYRVA[Cit]PAQLSAPT[Cit]QR-NH2; SMILES CC[C@H](C)[C@H](NC(=O)CNC(=O)CCCC[C@@H]1SC[C@@H]2NC(=O)N[C@@H]21)C(=O)N[C@@H](CO)C(=O)N1CCC[C@H]1C(=O)N[C@@H](C)C(=O)N[C@@H](CC(=O)O)C(=O)N[C@H](C(=O)N[C@@H](C)C(=O)N[C@@H](Cc1ccc(O)cc1)C(=O)N[C@@H](CCCNC(N)=O)C(=O)N[C@H](C(=O)N[C@@H](C)C(=O)N[C@@H](CCCNC(=N)N)C(=O)N1CCC[C@H]1C(=O)N[C@@H](C)C(=O)N[C@@H](CCC(N)=O)C(=O)N[C@@H](CC(C)C)C(=O)N[C@@H](Cc1ccc(O)cc1)C(=O)N[C@@H](CCCNC(=N)N)C(=O)N[C@H](C(=O)N[C@@H](C)C(=O)N[C@@H](CCCNC(N)=O)C(=O)N1CCC[C@H]1C(=O)N[C@@H](C)C(=O)N[C@@H](CCC(N)=O)C(=O)N[C@@H](CC(C)C)C(=O)N[C@@H](CO)C(=O)N[C@@H](C)C(=O)N1CCC[C@H]1C(=O)N[C@H](C(=O)N[C@@H](CCCNC(N)=O)C(=O)N[C@@H](CCC(N)=O)C(=O)N[C@@H](CCCNC(=N)N)C(N)=O)[C@@H](C)O)C(C)C)C(C)C)C(C)C) | strong |
| FBNT-3: synthetic citrullinated peptide derived from fibronectin, Table 8 (Biotin-GVLV[Cit]WTPPRLVRWTPP[Cit]AQG-NH2; SMILES CC(C)C[C@H](NC(=O)[C@H](CCCNC(=N)N)NC(=O)[C@@H]1CCCN1C(=O)[C@@H]1CCCN1C(=O)[C@@H](NC(=O)[C@H](Cc1c[nH]c2ccccc12)NC(=O)[C@H](CCCNC(N)=O)NC(=O)[C@@H](NC(=O)[C@H](CC(C)C)NC(=O)[C@@H](NC(=O)CNC(=O)CCCC[C@@H]1SC[C@@H]2NC(=O)N[C@@H]21)C(C)C)C(C)C)[C@@H](C)O)C(=O)N[C@H](C(=O)N[C@@H](CCCNC(=N)N)C(=O)N[C@@H](Cc1c[nH]c2ccccc12)C(=O)N[C@H](C(=O)N1CCC[C@H]1C(=O)N1CCC[C@H]1C(=O)N[C@@H](CCCNC(N)=O)C(=O)N[C@@H](C)C(=O)N[C@@H](CCC(N)=O)C(=O)NCC(N)=O)[C@@H](C)O)C(C)C) | moderate |
| FIB-G1: synthetic citrullinated peptide derived from fibrin (gamma-chain), Table 8 (Biotin-GYVAT[Cit]DNSSILDE[Cit]FGSRILTHDSSI[Cit]YR-NH2; SMILES CC[C@H](C)[C@H](NC(=O)[C@H](CO)NC(=O)[C@H](CO)NC(=O)[C@H](CC(=O)O)NC(=O)[C@H](Cc1c[nH]cn1)NC(=O)[C@@H](NC(=O)[C@H](CC(C)C)NC(=O)[C@@H](NC(=O)[C@H](CCCNC(=N)N)NC(=O)[C@H](CO)NC(=O)CNC(=O)[C@H](Cc1ccccc1)NC(=O)[C@H](CCCNC(N)=O)NC(=O)[C@H](CCC(=O)O)NC(=O)[C@H](CC(=O)O)NC(=O)[C@H](CC(C)C)NC(=O)[C@@H](NC(=O)[C@H](CO)NC(=O)[C@H](CO)NC(=O)[C@H](CC(N)=O)NC(=O)[C@H](CC(=O)O)NC(=O)[C@H](CCCNC(N)=O)NC(=O)[C@@H](NC(=O)[C@H](C)NC(=O)[C@@H](NC(=O)[C@H](Cc1ccc(O)cc1)NC(=O)CNC(=O)CCCC[C@@H]1SC[C@@H]2NC(=O)N[C@@H]21)C(C)C)[C@@H](C)O)[C@@H](C)CC)[C@@H](C)CC)[C@@H](C)O)C(=O)N[C@@H](CCCNC(N)=O)C(=O)N[C@@H](Cc1ccc(O)cc1)C(=O)N[C@@H](CCCNC(=N)N)C(N)=O) | strong |
